# Reference: patent US20030031647A1, “IFN-alpha and amantadine for treating hepatitis C” (priority 1997, published 2003)
# Columns and labels:
# PBMC = PBMC viability, proliferation and cytotoxicity (non-isotopic cell-proliferation and cytotoxicity assays); format: cell-based, human; settings: for PBMC proliferation: PBMC from healthy donors
# Procedure: (§1) PBMC were isolated from heparinized venous blood by Ficoll-Hypaque gradient sedimentation. The interphase PBMC were isolated, washed twice with phosphate-buffered saline, and suspended in RPMI. The viability of these cells was assessed by trypan blue exclusion. PBMC were cultured in duplicate at a concentration of 2×10^6 viable cells/ml in 6-well tissue culture dusters, in a humid atmosphere with 5% CO2 for 7 days. The cultures have been maintained without mitogens (medium alone) or were stimulated with single mitogens (Phytohemagglutinin (PHA) or Lipopolysaccharide (LPS) or with PHA plus LPS (10 μg/ml each)(Martin et al., Cytokine 8, 313-317 (1996)). PBMC proliferation, and the possible drug-induced cytotoxicity, were measured using non-isotopic cell-proliferation and cytotoxicity assays.
# Hepatitis C Virus = assay: HCV RNA in cultured PBMC from chronic hepatitis C patients (RT-PCR, AMPLICOR HCV MONITOR assay); format: cell-based, Hepatitis C virus (subtype 1b prevalent) in human PBMC; settings: for Number of cases with HCV RNA Negative / Number of cases with reduction in HCV RNA concentration >25% / Number of cases with reduction in HCV RNA concentration >50% / Number of cases with reduction in HCV RNA concentration >75%: IFN-α2A 0 IU/ml, PBMC, n = 15
# Procedure: Antiviral Effect of Amantadine and IFN-α2A Against Hepatitis C Virus on Peripheral Blood Mononuclear Cells (PBMC) from Chronic Hepatitis C Patients
# Mononuclear cells from patients with chronic hepatitis C (serum anti-HCV and HCV RNA positive with histologically proven chronic hepatitis) were analyzed for the presence of HCV RNA, using reverse transcription and PCR techniques with universal primers from the highly conserved 5′ non-coding region of the HCV genome (Navas et al., J. Hepatol. 21, 182-186 (1994)). Typing and subtyping of HCV genomes were performed by RFLP analysis of PCR products (Navas et al., J. Clin. Microbiol. 21, 317-321(1997)). For the purpose of this study, only cases infected by a single genotype have been considered, in order to minimize the possible interference of multiple genotypes, in the subject population, HCV subtype 1b was prevalent (Pernas et al., J. Gen. Virol. 76, 415-420(1995)). Thus, HCV RNA-positive PBMC obtained from 15 patients have been analyzed in vitro for the effects of treatment. PBMC from 10 matched healthy donors have been used as controls and analyzed similarly.
# as §1
# The effect of experimental treatments with amantadine alone, in combination with IFN-α2A and those of IFN-α2A alone, have been established by testing HCV RNA in cultured mononuclear cells, compared with untreated PBMC from patients (Martin et al., supra); specificity controls were as described previously by Navas et al. in J. Hepatol. 21, 182-186 (1994). Treatment of mononuclear cells form healthy donors with amantadine alone, in combination with IFN-α2A or with IFN-α2A alone, served as controls. Changes in HCV RNA concentrations were measured by the AMPLICOR™ HCV MONITOR assay (Roche Diagnostic System, Inc., Branchburg).
# [1] = amantadine 1-5 μM, cultured PBMC from HCV patients and healthy donors
compound,measurement,setting,value
"NC12CC3CC(CC(C3)C1)C2 [Amantadine, tricyclo[3.3.1.1^3,7]decane-1-amine]",PBMC proliferation,PBMC; amantadine 50 μM,slightly decreased PBMC proliferation
same,PBMC proliferation,PBMC; amantadine 500 μM,marked anti-proliferative effect
same,cell viability,PBMC; [1],did not affect the cell viability
same,response to mitogens,PBMC; [1],minor effects on the response to mitogens
same,PBMC cultures in which HCV RNA became negative,"Hepatitis C Virus; 2 μM amantadine, 1/15 patients",7%
same,PBMC cultures in which HCV RNA became negative,"Hepatitis C Virus; 5 μM amantadine, 3/15 patients",20%
same,Number of cases with HCV RNA Negative,Hepatitis C Virus; Amantadine 1 μM,0
same,Number of cases with reduction in HCV RNA concentration >25%,Hepatitis C Virus; Amantadine 1 μM,3
same,Number of cases with reduction in HCV RNA concentration >50%,Hepatitis C Virus; Amantadine 1 μM,2
same,Number of cases with reduction in HCV RNA concentration >75%,Hepatitis C Virus; Amantadine 1 μM,3
same,Number of cases with HCV RNA Negative,Hepatitis C Virus; Amantadine 2 μM,1
same,Number of cases with reduction in HCV RNA concentration >25%,Hepatitis C Virus; Amantadine 2 μM,5
same,Number of cases with reduction in HCV RNA concentration >50%,Hepatitis C Virus; Amantadine 2 μM,2
same,Number of cases with reduction in HCV RNA concentration >75%,Hepatitis C Virus; Amantadine 2 μM,4
same,Number of cases with HCV RNA Negative,Hepatitis C Virus; Amantadine 5 μM,3
same,Number of cases with reduction in HCV RNA concentration >25%,Hepatitis C Virus; Amantadine 5 μM,2
same,Number of cases with reduction in HCV RNA concentration >50%,Hepatitis C Virus; Amantadine 5 μM,2
same,Number of cases with reduction in HCV RNA concentration >75%,Hepatitis C Virus; Amantadine 5 μM,3
